Tests used:
BTK recombinant protein = BTK recombinant protein (Homo sapiens (Human), UniProt Q06187); assay: Determination of biochemical BTK (Z'-LYTE kinase assay); conditions: 32 μM ATP
[1] = test system: rat arthritis model induced by type II collagen; assay: Rat arthritis model induced by type II collagen (CIA), paw volume; format: in vivo; conditions: for inhibition ratio of area under the curve (IRAUC) of paw swelling: Day 13 to Day 19
Protocol: An appropriate amount of bovine type II collagen (CII, Chondrex (Redmond, WA, USA), Cat #20021) was weighed and dissolved in 0.1 mole of acetic acid (SPGC Sinopharm Chemical Reagent Co., Ltd (Shanghai, P.R. China), Cat #: 10000218.), which was formulated into a solution with a concentration of 6 mg/mL, stirred at 4° C. overnight, and added with an equal volume of Freund's incomplete adjuvant (Sigma-Aldrich. (St. Louis, MO, USA), Cat #: SLBW0366.), fully emulsified to prepare an emulsion with a CII concentration of 3 mg/mL.
Female Lewis rats were purchased from Beijing Vital River Laboratory Animal Technology Co., Ltd. (certificate number 20200928Aazz0619000579, initial body weight of 110-130 grams), and 6 rats were randomly selected as a normal group; and all of the remaining rats were immunized. In the first immunization on day 0, the rats except those in the normal group were anesthetized with isoflurane (Hebei Yipin Pharmaceutical Co., Ltd., Lot: C002170601.), and then disinfected with 75% alcohol, and 0.2 mL of emulsion was injected intradermally at the base of the tail thereof. A second challenge was carried out on day 7, and 0.2 mL of emulsion was intradermally injected using the same method. Once the animals developed symptoms on day 10, the incidence conditions thereof were closely monitored.
After grouping, the normal group was not administered, and the rats in the other groups were administered with the control vehicle, 0.25 mg/kg and 4 mg/kg of the reference GDC-0853, and each dose of compound 1 orally once a day until the end of the experiment.
The paw volume was measured on day 10 after immunization, and the left and right hind paw volumes (V) were measured every day after the paw volume increase was detected.
The arthrosis paw volumes of the left and right hind limbs of each animal were measured, and the average paw volume (APV) was calculated according to the following formula:
Average paw volume APV=(Vleft+Vright)/2
The average arthrosis paw volume of each animal before administration was used as the baseline (or considered […] of inflammation). The averaged paw swelling (APS) of each animal is calculated according to the following formula, wherein, APVd1 is the average paw volume of the animal administered on day 1, and APVdt is the average paw volume of the animal administered on day t:
The averaged paw swelling APSdt=(APVdt−APVd1)
The area under the curve (AUC) of the average paw volume swelling is the area under the curve of the arthrosis score swelling calculated by the trapezoid method, and the calculation formula is:
AUCAPS=½×(APSd1+APSd2)×(d2−d1)+½×(APSd2+APSd3)×(d3−d2)+ . . . +½×(APSdn+APSd(n-1))×(dn−dn-1).
Inhibition ratio IRAUC%=(Mean AUCAPS in the model group−AUCAPS in the drug-treated group)/(Mean AUCAPS in the model group−Mean AUCAPS in the normal group)×100%.

BTK recombinant protein, sequence (Q06187 whole entry): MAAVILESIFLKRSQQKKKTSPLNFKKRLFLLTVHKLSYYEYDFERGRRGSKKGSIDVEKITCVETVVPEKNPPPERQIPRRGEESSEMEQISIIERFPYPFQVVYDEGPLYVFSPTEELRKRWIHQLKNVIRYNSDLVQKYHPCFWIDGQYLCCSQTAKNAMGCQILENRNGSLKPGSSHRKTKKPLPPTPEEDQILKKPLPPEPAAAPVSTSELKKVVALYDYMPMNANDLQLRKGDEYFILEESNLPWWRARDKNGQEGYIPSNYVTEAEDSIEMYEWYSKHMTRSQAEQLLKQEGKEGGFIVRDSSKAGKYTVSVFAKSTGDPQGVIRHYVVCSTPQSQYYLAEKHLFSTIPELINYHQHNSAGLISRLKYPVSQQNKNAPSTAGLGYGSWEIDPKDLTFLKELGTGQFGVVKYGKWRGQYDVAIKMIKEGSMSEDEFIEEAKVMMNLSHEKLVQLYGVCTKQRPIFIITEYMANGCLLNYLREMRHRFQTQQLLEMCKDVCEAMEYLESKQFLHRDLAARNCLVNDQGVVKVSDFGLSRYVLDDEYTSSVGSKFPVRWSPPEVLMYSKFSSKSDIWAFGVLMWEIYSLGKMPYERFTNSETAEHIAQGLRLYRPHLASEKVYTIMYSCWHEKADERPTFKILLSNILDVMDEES

C[C@H]1CN(C2COC2)C[C@H](C)N1c1ccc(Nc2cc(-c3ccnc(-n4ccn5c6c(cc5c4=O)CC(C)(C)C6)c3CO)cn(C)c2=O)nc1 [Compound 1, 2-(5-((5-((2S,6S)-2,6-dimethyl-4-(oxetan-3-yl)piperazin-1-yl)pyridin-2-yl)amino)-3′-(hydroxymethyl)-1-methyl-6-oxo-1,6-dihydro-[3,4′-bipyridin]-2′-yl)-7,7-dimethyl-7,8-dihydro-2H-cyclopenta[4,5]pyrrolo[1,2-a]pyrazin-1(6H)-one]
IC50 (BTK recombinant protein): 0.01 µM | inhibition ratio of area under the curve (IRAUC) of paw swelling ([1]; 0.06 mg/kg oral QD): 76.2% | effect on paw volume compared with vehicle control group ([1]; 0.25 mg/kg oral QD): significantly increase the continuous improvement of paw volume swelling | inhibition ratio of area under the curve (IRAUC) of paw swelling ([1]; 0.25 mg/kg oral QD): 83.1% | effect on paw volume compared with vehicle control group ([1]; 4 mg/kg oral QD): significantly increase the continuous improvement of paw volume swelling | inhibition ratio of area under the curve (IRAUC) of paw swelling ([1]; 4 mg/kg oral QD): 200.2% | minimum effective dose ([1]; oral QD, paw swelling): 0.06 mg/kg/day
